Assay results from ChEMBL document CHEMBL4382203, “Discovery, cocrystallization and biological evaluation of novel piperidine derivatives as high affinity Ls-AChBP ligands possessing α7 nAChR activities” (Eur J Med Chem, 2018).
Active and inactive are the calls of the source. The rule behind the calls is not given here.

Columns and labels:
[1] = biological target: Acetylcholine-binding protein (Lymnaea stagnalis, UniProt P58154); assay: Displacement of [3H]epibatidine from Lymnaea stagnalis acetylcholine-binding protein incubated for 60 mins followed by 3 hrs incubation in dark condition by microbeta counting analysis
[2] = biological target: Acetylcholine-binding protein (Lymnaea stagnalis) (UniProt P58154); assay: Displacement of [3H]epibatidine from Lymnaea stagnalis acetylcholine-binding protein at 100 nM incubated for 60 mins followed by 3 hrs incubation in dark condition by microbeta counting analysis relative to control
[3] = biological target: T1, Neuronal acetylcholine receptor subunit alpha-7 (Homo sapiens, UniProt P36544); assay: Partial agonist activity at human alpha7 nAChR at 100 uM at -60 mV holding potential incubated for 1 sec followed by 60 secs compound washout relative to acetylcholine
[4] = biological target: T1, Neuronal acetylcholine receptor subunit alpha-7; assay: Antagonist activity at human alpha7 nAChR assessed as inhibition of acetylcholine-induced response at 100 uM at -60 mV holding potential incubated for 30 secs followed by acetylcholine addition and subsequent compound washout for 30 secs relative to acetylcholine
[5] = biological target: T1, Neuronal acetylcholine receptor subunit alpha-7; assay: Antagonist activity at human alpha7 nAChR assessed as inhibition of acetylcholine-induced response at 1 uM at -60 mV holding potential incubated for 30 secs followed by acetylcholine addition and subsequent compound washout for 30 secs relative to acetylcholine
[6] = biological target: Neuronal acetylcholine receptor; alpha4/beta2 (Homo sapiens) (UniProt P17787+P43681); assay: Agonist activity at alpha4beta2 nAChR (unknown origin) at -60 mV holding potential incubated for 1 sec followed by 60 secs compound washout; assay type: protein-complex assay
[7] = biological target: T1, Neuronal acetylcholine receptor subunit alpha-7; assay: Partial agonist activity at human alpha7 nAChR expressed in Xenopus laevis oocytes at holding potential of -90 mV by patch clamp electrophysiological method; assay type: cell-based
[8] = biological target: T1, Neuronal acetylcholine receptor subunit alpha-7; assay: Partial agonist activity at human alpha7 nAChR at -60 mV holding potential incubated for 1 sec followed by 60 secs compound washout
[9] = AUC (0 to infinity) in ICR mouse at 2 mg/kg, iv; assay type: ADME, organism-based; set-up: dose 2 mg/kg, route intravenous, time infinity; settings: in vivo
[10] = Clearance in ICR mouse at 2 mg/kg, iv; assay type: ADME, organism-based; settings: in vivo
[11] = Apparent volume of distribution in ICR mouse at 2 mg/kg, iv; assay type: ADME, organism-based; settings: in vivo, read-out: Vz
[12] = Half life in ICR mouse at 2 mg/kg, iv; assay type: ADME, organism-based; settings: in vivo
[13] = Tmax in ICR mouse at 2 mg/kg, iv; assay type: ADME, organism-based; settings: in vivo
[14] = Ratio of drug level in blood to plasma in ICR mouse at 2 mg/kg, iv after 4 hrs; assay type: ADME, organism-based; settings: blood and plasma
[15] = Cmax in ICR mouse at 2 mg/kg, iv; assay type: ADME, organism-based; set-up: dose 2 mg/kg, route intravenous; settings: in vivo
[16] = AUC (0 to infinity) in ICR mouse at 10 mg/kg, po; assay type: ADME, organism-based; set-up: dose 10 mg/kg, time infinity, route oral; settings: in vivo
[17] = Half life in ICR mouse at 10 mg/kg, po; assay type: ADME, organism-based; settings: in vivo
[18] = Tmax in ICR mouse at 10 mg/kg, po; assay type: ADME, organism-based; settings: in vivo
[19] = Cmax in ICR mouse at 10 mg/kg, po; assay type: ADME, organism-based; set-up: dose 10 mg/kg, route oral; settings: in vivo
[20] = Oral bioavailability in ICR mouse at 10 mg/kg; assay type: ADME, organism-based; settings: in vivo
[21] = Ratio of drug level in blood to plasma in ICR mouse at 10 mg/kg, po after 4 hrs; assay type: ADME, organism-based; settings: blood and plasma
[22] = biological target: T1, Neuronal acetylcholine receptor subunit alpha-7; assay: Partial agonist activity at human alpha7 nAChR expressed in Xenopus laevis oocytes by voltage clamp electrophysiological method; assay type: cell-based

T1 sequence (P36544 whole entry): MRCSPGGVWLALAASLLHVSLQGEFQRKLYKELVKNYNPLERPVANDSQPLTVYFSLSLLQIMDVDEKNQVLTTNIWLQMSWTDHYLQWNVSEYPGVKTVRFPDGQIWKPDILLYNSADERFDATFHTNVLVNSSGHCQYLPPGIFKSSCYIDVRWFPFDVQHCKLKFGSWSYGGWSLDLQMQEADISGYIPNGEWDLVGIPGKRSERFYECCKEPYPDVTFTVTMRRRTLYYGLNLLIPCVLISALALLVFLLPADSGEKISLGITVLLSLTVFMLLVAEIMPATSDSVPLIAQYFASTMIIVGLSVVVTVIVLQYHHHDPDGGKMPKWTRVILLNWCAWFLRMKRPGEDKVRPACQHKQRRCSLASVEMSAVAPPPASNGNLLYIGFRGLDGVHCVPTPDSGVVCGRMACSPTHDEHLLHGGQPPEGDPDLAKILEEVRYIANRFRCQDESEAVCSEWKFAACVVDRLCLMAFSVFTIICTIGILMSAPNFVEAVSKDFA
Chain of Acetylcholine-binding protein (P58154 whole entry): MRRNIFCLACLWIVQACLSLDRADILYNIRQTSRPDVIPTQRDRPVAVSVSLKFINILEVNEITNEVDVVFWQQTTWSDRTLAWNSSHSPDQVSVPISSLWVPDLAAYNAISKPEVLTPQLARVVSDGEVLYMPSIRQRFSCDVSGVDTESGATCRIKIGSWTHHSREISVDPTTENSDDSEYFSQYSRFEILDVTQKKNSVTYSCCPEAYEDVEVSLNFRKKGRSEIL
Chain of Acetylcholine-binding protein (Lymnaea stagnalis) (P58154 whole entry): as above

SMILES | Ki [1] [nM] | Efficacy [3] [%] | further results
Clc1cccc(CC2(COc3ccccn3)CCCNC2)c1 (centres undefined) | > 67.7 | – | inhibition [2]: < 50%
Cc1cccc(CC2(COc3cccnc3)CCCNC2)c1 (centres undefined) | 12.4 | 14.8 | –
OCCCCC#Cc1cncc(OCC2(Cc3cccc(Cl)c3)CCCNC2)c1 (centres undefined) | 3.47 | 4.5 | inhibition [4]: 97.3%; inhibition [5]: 12.8%; Activity [6]: inactive
c1ccc(-c2ccc(CC3(COc4cccnc4)CCCNC3)cc2)cc1 (centres undefined) | 11.7 | 7.9 | inhibition [4]: 96.5%; inhibition [5]: 53.4%
Clc1cccc(CC2(COc3ccc4c(c3)[nH]c3ccccc34)CCCNC2)c1 (centres undefined) | > 67.7 | – | inhibition [2]: < 50%
Clc1ccc(CC2(COc3cccnc3)CCCNC2)cc1Cl (centres undefined) | 2.27 | – | –
Clc1ccc(CC2(COc3cccnc3)CCNCC2)cc1Cl | – | 3.1 | inhibition [4]: 94%; inhibition [5]: 27.2%; Activity [6]: inactive
Clc1cccc(CC2(COc3cncc(-c4ccccc4)c3)CCCNC2)c1 (centres undefined) | > 67.7 | – | inhibition [2]: < 50%
Clc1cccc(CC2(COc3cccnc3)CCCNC2)c1Cl (centres undefined) | 6.02 | 19.5 | –
Clc1ccc(CC2(COc3cccnc3)CCCNC2)cc1 (centres undefined) | 9.77 | 18.2 | –
Cc1ccc(CC2(COc3cccnc3)CCCNC2)cc1 (centres undefined) | 16.5 | 13 | –
Cc1ccc(-c2ccc(O[C@H]3CN4CCC3CC4)cn2)cc1 | – | – | EC50 [7]: 39 nM
FC(F)(F)c1ccccc1CC1(COc2cccnc2)CCCNC1 (centres undefined) | 17.2 | 13.5 | –
Clc1ccc(C[C@]2(COc3cccnc3)CCCNC2)cc1Cl | 26.2 | 5.5 | inhibition [4]: 90.8%; inhibition [5]: 27.2%; Activity [6]: inactive
Clc1ccccc1CC1(COc2cccnc2)CCCNC1 (centres undefined) | 13 | 16.8 | –
OCCCC#Cc1ccc(OCC2(Cc3cccc(Cl)c3)CCCNC2)cn1 (centres undefined) | > 67.7 | – | inhibition [2]: < 50%

SMILES | Ki [1] [nM] | Efficacy [3] [%] | further results
Cc1ccccc1CC1(COc2cccnc2)CCCNC1 (centres undefined) | 18.8 | 12.8 | –
Clc1ccc(C[C@@]2(COc3cccnc3)CCCNC2)cc1Cl | 0.86 | 33.3 | Emax [3]: 36.1%; EC50 [8]: 20400 nM; AUC(0-inf) [9]: 0.7 µM·h; clearance [10]: 129 mL/min/kg; Vd [11]: 13.3 L/kg; half-life [12]: 72 min; Tmax [13]: 4.8 min; blood plasma ratio at 4 h [14]: 8.8; Cmax [15]: 1000 nM; AUC(0-inf) [16]: 1.9 µM·h; half-life [17]: 102 min; Tmax [18]: 30 min; Cmax [19]: 1100 nM; bioavailability [20]: 51.2%; blood plasma ratio at 4 h [21]: 5.1; Activity [6]: inactive
OCCC#Cc1ccc(OCC2(Cc3cccc(Cl)c3)CCCNC2)cn1 (centres undefined) | 29 | – | –
OCCCCC#Cc1ccc(OCC2(Cc3cccc(Cl)c3)CCCNC2)cn1 (centres undefined) | 16 | 8.5 | –
O=C(N[C@H]1CN2CCC1CC2)c1cc2cccc(Cl)c2s1 [ENCENICLINE] | – | – | EC50 [22]: 390 nM
Clc1cccc(CC2(COc3ccncc3)CCCNC2)c1 (centres undefined) | 16.5 | – | –
Clc1cccc(CC2(COc3ccc(Cl)nc3)CCCNC2)c1 (centres undefined) | 3.39 | 4.4 | –
Clc1cccc(CC2(COc3cncnc3)CCCNC2)c1 (centres undefined) | 5.22 | – | –
OCCC#Cc1cncc(OCC2(Cc3cccc(Cl)c3)CCCNC2)c1 (centres undefined) | 5.57 | – | –
Clc1cccc(CC2(COc3cncc(Br)c3)CCCNC2)c1 (centres undefined) | 22.2 | – | –
OCCCC#Cc1cncc(OCC2(Cc3cccc(Cl)c3)CCCNC2)c1 (centres undefined) | 12.5 | – | –
FC(F)(F)c1ccc(CC2(COc3cccnc3)CCCNC2)cc1 (centres undefined) | 11.9 | 17.5 | –
Clc1cccc(CC2(COc3ccc(Br)nc3)CCCNC2)c1 (centres undefined) | 11.4 | – | –
Clc1cccc(CC2(COc3cccnc3)CCCNC2)c1 (centres undefined) | 5.3 | 33.8 | –
FC(F)(F)c1cccc(CC2(COc3cccnc3)CCCNC2)c1 (centres undefined) | 5.93 | 28 | Activity [6]: inactive
